Read-outs that look alike come from different tables or passages of the source.
Experiments:
[1] = biological target: T1, Pseudomonas fluorescens KMO (PfKMO) (Pseudomonas fluorescens, UniProt Q84HF5, C252S/C461S); assay: biochemical
T1 construct: made in house; host or cells: E. coli BL21 (DE3)
Description: (§1) A combination of ligand- and structural-based virtual screening approaches (see supporting information for details) was used to identify an initial library of >1000 compounds that may be suitable as potential KMO inhibitors. These compounds were screened for inhibition of Pseudomonas fluorescens KMO (PfKMO) and Homo sapiens KMO (HsKMO) using high-throughput assays by monitoring the time-dependent oxidation of NADPH at 340 nm[23].
(§2) Small-molecule compounds were supplied by Biofocus (Charles River Laboratories International Inc., MA, USA), which were identified in silico as potential inhibitors (further details are described in the Supplementary Methods). Initial inhibition assays were performed against Pseudomonas fluorescens KMO (PfKMO) and Homo sapiens KMO (HsKMO) by monitoring the time-dependent absorbance change of NADPH at 340 nm. Purified KMO protein (200 nM) was incubated in 100 µL reaction buffer (20 mM potassium phosphate pH 8.0, 7 mM 2-mercaptoethanol) containing 100 μM NADPH, 100 μM L-Kyn and 20 μM potential inhibitors in 96-well plates. […] The inhibitors identified in the initial screens were validated and re-assayed individually in a 1 cm path-length quartz micro cuvette. […] Suppliers for target inhibitor compounds are listed in Supplementary Table 11.
(§3) Supplementary Figure 1. Examples of inhibition data used to generate IC50 values for selected KMO inhibitors. Fixed concentration of L -KYN (200 µM) and NADPH (100µM) were added into reaction buffer (HsKMO: 20mM potassium phosphate pH 8.0, 7 mM 2-mercaptoethanol; PfKMO: 20 mM HEPES, 10mM sodium acetate, pH 7.5, 2mM DTT). The reaction was initiated by the addition of KMO enzyme (HsKMO: 0.5µM; PfKMO: 0.1 µM). KMO activity was measured in the presence of a range of inhibitor concentrations. […]
(§4) 3.5 Steady-state enzymatic assays.
(§5) Initial screening assays and determination of IC50 values for each potential inhibitor compound were carried out using either 0.1 µM PfKMO or 0.5 µM HsKMO at fixed […]
(§6) (HsKMO: 20 mM potassium phosphate pH 8.0, 7 mM 2-mercaptoethanol; PfKMO:
(§7) 20 mM HEPES, 10 mM sodium acetate, pH 7.5, 2 mM DTT). KMO activity was measured in the presence of a range of inhibitor concentrations by monitoring the […]
consumption of NADPH at 340 nm upon addition of enzyme via a Cary 50 UV-Vis spectrophotometer (Agilent Technologies). Rates were determined from linear regression fits to the initial linear portion of the curves. All measurements were performed in triplicate. The IC50 values for inhibitors were obtained by plotting the percentage inhibition versus the inhibitor concentration and fitting to the Morrison equation16 (equation 1) using Origin 9.0 Software (OriginLab, Northampton, MA). […]

Homo sapiens KMO (HsKMO) = biological target: T2, Homo sapiens KMO (HsKMO) (Homo sapiens, UniProt O15229); assay: KMO inhibition assay, NADPH oxidation at 340 nm (HsKMO); type: biochemical
T2 construct: GST; made in house
Description: as §1, §2
Supplementary Figure 1. Examples of inhibition data used to generate IC50 values for selected KMO inhibitors.
as §3, with “NADPH” for “Supplementary Figure 1. Examples of inhibition data used to generate IC50 values for selected KMO inhibitors. Fixed concentration of L -KYN (200 µM) and NADPH”
as §4, §5, §6, §7
consumption of NADPH at 340 nm upon addition of enzyme via a Cary 50 UV-Vis spectrophotometer (Agilent Technologies). Rates were determined from linear regression fits to the initial linear portion of the curves. All measurements were performed in triplicate. The IC50 values for inhibitors were obtained by plotting the percentage inhibition versus the inhibitor concentration and fitting to the Morrison equation16 (equation 1) using Origin 9.0 Software (OriginLab, Northampton, MA).
E + I + K!"" − E + I + K!"" ! − 4[E][I] where v0 is the enzyme activity without inhibitor, vi is the enzyme activity with ligand

T2 sequence (O15229 whole entry): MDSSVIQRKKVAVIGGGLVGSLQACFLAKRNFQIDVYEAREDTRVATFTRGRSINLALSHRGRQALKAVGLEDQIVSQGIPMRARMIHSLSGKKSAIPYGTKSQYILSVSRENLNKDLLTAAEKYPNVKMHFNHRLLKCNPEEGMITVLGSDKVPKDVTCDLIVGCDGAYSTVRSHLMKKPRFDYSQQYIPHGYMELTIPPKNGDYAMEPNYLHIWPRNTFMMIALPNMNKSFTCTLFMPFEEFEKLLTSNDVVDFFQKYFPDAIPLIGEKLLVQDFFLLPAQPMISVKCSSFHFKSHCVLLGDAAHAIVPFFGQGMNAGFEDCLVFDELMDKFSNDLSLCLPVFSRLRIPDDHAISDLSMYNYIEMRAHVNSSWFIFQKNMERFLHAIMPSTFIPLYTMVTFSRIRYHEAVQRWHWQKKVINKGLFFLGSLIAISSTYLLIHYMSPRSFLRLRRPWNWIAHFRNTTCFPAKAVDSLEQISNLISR
T1 sequence (Q84HF5 whole entry C252S/C461S): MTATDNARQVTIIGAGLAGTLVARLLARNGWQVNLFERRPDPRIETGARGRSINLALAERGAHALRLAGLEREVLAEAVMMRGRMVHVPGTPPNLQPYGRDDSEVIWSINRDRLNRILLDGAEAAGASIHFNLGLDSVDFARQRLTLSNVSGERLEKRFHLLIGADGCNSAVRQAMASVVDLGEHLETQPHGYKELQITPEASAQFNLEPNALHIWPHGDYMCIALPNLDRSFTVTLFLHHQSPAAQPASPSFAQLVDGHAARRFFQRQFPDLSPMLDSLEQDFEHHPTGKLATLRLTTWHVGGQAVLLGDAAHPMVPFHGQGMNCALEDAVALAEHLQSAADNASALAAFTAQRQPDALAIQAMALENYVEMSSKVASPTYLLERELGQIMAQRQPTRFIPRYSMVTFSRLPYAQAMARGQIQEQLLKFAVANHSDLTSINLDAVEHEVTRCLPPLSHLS

With COc1ccc(-c2cn(CC(=O)O)c(=O)cn2)cc1 [compound 15, 2-(5-(4-methoxyphenyl)-2-oxopyrazin-1(2H)-yl)acetic acid] the IC50 ([1]; read-out: IC50 PfKMO) was 6.3 ± 0.6 µM and the IC50 (Homo sapiens KMO (HsKMO)) was 54.2 µM.
For CNC(=O)CN1C(=O)COc2cc(C)c(Cl)c(C)c21 [1f], the IC50 [1] was over 300 µM and the IC50 (Homo sapiens KMO (HsKMO)) was over 300 µM.
With O=C(O)c1ccc(-c2cc(C(F)(F)F)ccc2Cl)o1 [compound 12, 5-[2-chloro-5-(trifluoromethyl)phenyl]furan-2-carboxylic acid] the IC50 [1] was 54 ± 1.6 µM and the IC50 (Homo sapiens KMO (HsKMO)) was 31.8 µM.
Compound O=C(O)CCc1ccc(-c2cccs2)n1-c1ccc(Br)cc1 [compound 2, 3-[1-(4-bromophenyl)-5-(2-thienyl)-1H-pyrrol-2-yl] propanoic acid] has an IC50 [1] of 130 ± 18.7 µM and an IC50 (Homo sapiens KMO (HsKMO)) of 1.5 µM.
O=C(O)[C@@H]1C[C@H]1C(=O)c1ccc(Cl)c(Cl)c1 [UPF648, reference compound] showed an IC50 [1] of 0.12 ± 0.03 µM and an IC50 (Homo sapiens KMO (HsKMO)) of 0.06 µM.
With Cc1cc2c(c(C)c1Cl)N(CC(N)=O)C(=O)CO2 [1g] the IC50 [1] was over 300 µM and the IC50 (Homo sapiens KMO (HsKMO)) was over 300 µM.
With O=C(O)c1ccc(-c2ccccc2C(F)(F)F)o1 [compound 11, 5-[2-(trifluoromethyl)phenyl]furan-2-carboxylic acid] the IC50 [1] was 72.1 ± 1.9 µM and the IC50 (Homo sapiens KMO (HsKMO)) was 144 µM.
Work on Cc1ccc2c(c1)cc(C(=O)N[C@@H](C(=O)O)c1ccccc1)n2C [compound 7, (R)-2-(1,5-dimethyl-1H-indole-2-carboxamido)-2-phenylacetic acid] yielded an IC50 [1] of 101 ± 9.1 µM and an IC50 (Homo sapiens KMO (HsKMO)) of 21.3 µM.
Cc1cc2c(c(C)c1Cl)N(CC(=O)N(C)C)C(=O)CO2 [1e] gave an IC50 [1] of over 300 µM and an IC50 (Homo sapiens KMO (HsKMO)) of about 300 µM.
